According to patent US20210069333A1, “CANNABINOIDS IN COMBINATION WITH NON-CANNABINOID CHEMOTHERAPEUTIC AGENTS” (GW Pharma Limited, priority 2008, published 2021):

Experiments:
[1] = test system: human U87 MG astrocytoma cells; assay: Cell viability of human U87 MG astrocytoma cells in culture; type: cell-based; details: for IC50: Homo sapiens, U-87 MG, read-out: IC50 μM (pure cannabinoids); for reduction of cell viability in combination with THC vs agent alone: U87 MG, combined with THC, FIGS. 4 and 5
Procedure: Tetrahydrocannabinol (THC) and cannabidiol (CBD) in the form of cannabis plant extracts were dissolved in ethanol to a concentration of 100 mM this was stored at −20° C. until required.
Before use the cannabis plant extracts were further diluted to the desired concentration, ensuring that the concentration of ethanol was below 0.001%.
U87 human glioma cells were used throughout this experiment. The cells were maintained at 37° C. in a humidified atmosphere with 5% CO2 and 95% air.
Cells were cultured in a 75 cm^2 culture flask in Dulbecco's Modified Eagle Medium (DMEM), which had been supplemented with 4 mM L-glutamine, 100 units/ml penicillin, […], 1% sodium pyruvate, 1% non-essential amino acids and 10% heat-inactivated fetal bovine serum.
The viability of the human U87 MG astrocytoma cells were examined at various cannabinoid concentrations. The THC and CBD extracts were compared against pure THC and CBD.
The methods used were as described in Example 1 above.
The action of THC, CBD, and a 1:1 ratio mix of THC and CBD were studied at different concentrations on two cell lines: U87MG and T98G.
Cell viability assays were performed as described in Example 1 above.

[2] = test system: Human U87 MG astrocytoma cells xenografted to nude mice; assay: U87 MG astrocytoma xenograft in nude mice, tumour volume; type: in vivo; details: 15 mg/kg per day, injected peritumourally
Procedure: Human U87 MG astrocytoma cells were xenografted to nude mice and the test compounds were injected peritumourally at a concentration of 15 mg/kg per day.

U87MG cells = assay: Induced cell death in U87MG cells with ATG1 silencing or pan-caspase inhibitor; details: cell death induced by the THC:CBD combination, FIGS. 3b and 3c

Compound	IC50 [1]	reduction of cell viability in combination with THC vs agent alone [1]	also measured
C=C(C)[C@@H]1CCC(C)=C[C@H]1c1c(O)cc(CCCCC)cc1O [CBD, cannabidiol]	0.47 µM	–	–
CCCCCc1cc(O)c2c(c1)OC(C)(C)[C@@H]1CCC(C)=C[C@@H]21 [THC, tetrahydrocannabinol]	0.37 µM	–	Tumour volume relative to zero time following 15 days of treatment [2]: 5.1 ± 0.4
N.N.[Cl][Pt][Cl] [cisplatin]	–	more efficient at reducing cell viability	–
CC/C(=C(\c1ccccc1)c1ccc(OCCN(C)C)cc1)c1ccccc1 [tamoxifen]	–	more efficient at reducing cell viability	–
Z-VAD	–	–	effect on induced cell death (U87MG cells): prevent induced cell death
